In patent publication US9072778B2, “Treatment regimen for N-MYC, c-MYC, and L-MYC amplified and overexpressed tumors” (UNIVERSITY OF HAWAII, priority 2005, dated 2015):

Tests used:
ODC [1] = target: T1, ODC (Homo sapiens, UniProt P11926); test: ODC enzyme activity in lysates of inhibitor-treated NB cells; assay type: cell-based; details: DFMO = 5 mM, SAM486A = 10 μM, mean ± SD
T1 construct: enzyme activities were measured in cell lysates; endogenous in cells
T1 sequence (P11926 1-461): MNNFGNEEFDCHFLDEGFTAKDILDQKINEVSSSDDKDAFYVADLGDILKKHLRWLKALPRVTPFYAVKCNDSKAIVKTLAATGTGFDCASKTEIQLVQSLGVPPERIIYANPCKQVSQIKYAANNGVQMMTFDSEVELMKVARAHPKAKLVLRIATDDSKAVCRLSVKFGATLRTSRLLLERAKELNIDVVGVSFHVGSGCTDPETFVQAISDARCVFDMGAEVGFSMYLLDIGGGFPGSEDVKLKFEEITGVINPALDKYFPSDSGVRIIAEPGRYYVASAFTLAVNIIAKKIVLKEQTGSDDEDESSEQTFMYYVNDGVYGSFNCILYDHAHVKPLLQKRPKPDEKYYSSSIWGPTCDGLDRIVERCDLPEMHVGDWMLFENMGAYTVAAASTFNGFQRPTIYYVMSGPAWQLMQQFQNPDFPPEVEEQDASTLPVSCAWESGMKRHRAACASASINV
Method: (§1) Human NB cell lines were provided by Dr. Robert Seeger (LAN-1; University of California, Los Angeles, Calif.), Dr. Nai-Kong Cheung (NMB-7; Memorial Sloan-Kettering Cancer Center, NY), and the American Type Culture Collection (SK-N-SH; ATCC, Manassas, Va.). Cells were maintained in RPMI 1640 (Biosource, Rockeville, Md.) containing 10% heat-inactivated fetal bovine serum (FBS) (Invitrogen, Carlsbad, Calif.), penicillin (100 IU/ml) and streptomycin (100 μg/ml). If cells were treated with exogenous Spd, 1 mM of aminoguanidine was included as an inhibitor of serum polyamine oxidation. […] For growth and proliferation inhibition, polyamine pool, and cell cycle studies, 10 μM Spd was added together with inhibitors, and cells were assayed on days 2 and/or 3.
ODC and AdoMetDC enzyme activities were determined using a standard assay known in the art. In brief, NB cells were washed twice with ice-cold PBS and harvested in 50 mM sodium phosphate buffer (pH 7.2), 0.1 mM EDTA, 2.5 mM DTT, supplemented with 1× protease inhibitor cocktail (Roche Molecular Biochemicals, Indianapolis, Ind.). For the measurement of AdoMetDC activity, cells were harvested in the above buffer supplemented with 2.5 mM Put. Cells were lysed by three freeze/thaw cycles and cell lysates were prepared by centrifugation for 20 minutes at 14,000 rpm and 4° C. ODC activity was measured in a reaction mixture that contained 20 μM L-[1-^14C]ornithine (47.70 mCi/mmol; NEN Life Science Products, Boston, Mass.). AdoMetDC activity was assayed in a reaction mixture that contained 8.2 μM S-adenosyl-L-[carboxy-^14C]methionine (58.0-61.0 mCi/mmol; Amersham Biosciences, Piscataway, N.J.) and 140.1 μM cold S-adenosylmethionine. […] Untreated or SAM486A-treated LAN-1 extracts were assayed for AdoMetDC activity after multiple rounds of sequential dilution with harvest buffer followed by concentration of the extract (Centricon YM-10, Millipore Corporation, Bedford, Mass.) to remove the inhibitor.

LAN-1 cells [2] = test: Cell cycle phase distribution (propidium iodide), LAN-1; assay type: cell-based, human; details: DFMO = 5 mM, SAM486A = 10 μM, Spd = 10 μM, mean ± SD
Text: This profile, which is typical for cell cycle arrest at G1, was enhanced by the combination of both inhibitors, with the majority of cells in G1 (˜71-73%), a reduced number of cells in S phase (˜20-28%), and a small portion in G2/M (˜2-7%).
as §1

LAN-1 cells [3] = test: Cell growth and proliferation (cell number) and morphology, LAN-1; assay type: cell-based, human; details: LAN-1, 3 days; 5 mM DFMO, 10 μM SAM486A
Method: (§2) Cell numbers are expressed as percentage (%) of control cell growth and proliferation. Each sample was measured in duplicate and the data represent the mean of three separate determinations±SD. The observed growth and proliferation inhibition of LAN-1 and NMB-7 cells was accompanied by dramatic alterations in cell morphology (FIG. 4b). […] On day 3, both untreated and treated cells were washed free of inhibitor by washing twice with PBS, reseeded in new medium (NM) (solid black arrow) without inhibitors at the starting cell density (dashed black arrow) and the experiment was continued for an additional 7 days. While the untreated LAN-1 and NMB-7 cells grew normally and reached similar cell densities after an additional 3 days (day 6 of the experiment), the initially treated LAN-1 and NMB-7 cells resumed proliferation only slowly and reached about 30% and 58% of control cell growth and proliferation, respectively, on day 10 of the experiment (FIG. 6). Cell numbers were determined using a hemocytometer and trypan blue reagent, and each data point is representative of three separate determinations±SD. […] (not shown). Human NB cell lines were provided by Dr. Robert Seeger (LAN-1; University of California, Los Angeles, Calif.), Dr. Nai-Kong Cheung (NMB-7; Memorial Sloan-Kettering Cancer Center, NY), and the American Type Culture Collection (SK-N-SH; ATCC, Manassas, Va.). […]

NMB-7 cells = test: Cell growth and proliferation (cell number) and morphology, NMB-7; assay type: cell-based, human; details: NMB-7, 3 days; 5 mM DFMO, 10 μM SAM486A
Method: as §2

ODC [4] = target: T1, ODC; test: ODC activity after preincubation of cell extracts with DFMO; assay type: biochemical; details: extracts from untreated or DFMO-treated LAN-1 cells, 100 μM DFMO, 30 min at 37° C.
Method: ODC and AdoMetDC enzyme activities were determined using a standard assay known in the art. In brief, NB cells were washed twice with ice-cold PBS and harvested in 50 mM sodium phosphate buffer (pH 7.2), 0.1 mM EDTA, 2.5 mM DTT, supplemented with 1× protease inhibitor cocktail (Roche Molecular Biochemicals, Indianapolis, Ind.). […] Cells were lysed by three freeze/thaw cycles and cell lysates were prepared by centrifugation for 20 minutes at 14,000 rpm and 4° C. ODC activity was measured in a reaction mixture that contained 20 μM L-[1-^14C]ornithine (47.70 mCi/mmol; NEN Life Science Products, Boston, Mass.).

[5] = SAM486A, Phase II, relapsed or refractory non-Hodgkin's lymphoma; cited from earlier work

| Specific enzyme activity ODC (ODC [1]; LAN-1, 2 days after treatment) [% OF CONTROL] | Specific enzyme activity ODC (ODC [1]; NMB-7, 2 days after treatment) [% OF CONTROL] | ODC activity after preincubation of extracts (ODC [4]) | Structure (SMILES) | Cell cycle G1 (LAN-1 cells [2]; LAN-1, day 2) [% TOTAL CELLS] | Cell cycle G2/M (LAN-1 cells [2]; LAN-1, day 2) [% TOTAL CELLS] | Cell cycle S (LAN-1 cells [2]; LAN-1, day 2) [% TOTAL CELLS] | Cell cycle G1 (LAN-1 cells [2]; LAN-1, day 3) [% TOTAL CELLS] | Cell cycle G2/M (LAN-1 cells [2]; LAN-1, day 3) [% TOTAL CELLS] | Cell cycle S (LAN-1 cells [2]; LAN-1, day 3) [% TOTAL CELLS] | cell morphology (FIG. 4b) (LAN-1 cells [3]) | cell morphology (FIG. 4b) (NMB-7 cells) | most frequent side effects [5] |
| --- | --- | --- | --- | --- | --- | --- | --- | --- | --- | --- | --- | --- |
| 26 ± 2 | 25 ± 8 | complete loss of ODC activity | NCCC[C@](N)(C(=O)O)C(F)F [DFMO, α-difluoromethylornithine] | 62.1 ± 10.4 | 11.5 ± 3.0 | 26.4 ± 7.5 | 63.1 ± 12.2 | 6.2 ± 4.1 | 30.8 ± 8.2 | changed into spindle-like cells with neurite-like extensions | formed large polynucleate cell aggregates with only very short extensions |  |
| 240 ± 27 | 251 ± 42 |  | N=C(N)c1cccc2c1CC/C2=N\N=C(N)N [SAM486A, 4-amidinoindan-1-one 2′-amidinohydrazone] | 58.7 ± 8.3 | 9.6 ± 3.2 | 31.7 ± 6.8 | 53.3 ± 5.1 | 9.3 ± 2.0 | 37.4 ± 3.5 |  |  | nausea, vomiting, diarrhea, asthenia, abdominal pain, and flushing |
